The results in this text go back to ChEMBL document CHEMBL1122475, “Antidepressant activity of 5-aryl-2,3,5,6-tetrahydroimidazo[2,1-a]isoquinolin-5-ols” (1983).

Activity calls are given as the source filed them. No cut-off for these calls is given here. Bounds are passed on as bounds.

In assay [1] the test system is Mus musculus. Briefly: Lethal dose by i.p. administration. The assay is classed as functional. As to conditions: ip.
Assay [2] concerns Mus musculus. The experiment in a line: Inhibition of reserpine (5 mg/kg i.p.) induced hypothermia in mice 2 hr after i.p. administration. The assay is classed as functional. As to conditions: ip.
The test system of assay [3] is Mus musculus. Briefly: Minimal dose required to induce in mice exophthalmus (ip). In kind it is functional.
Assay [4] relates to Mus musculus. Briefly: Minimal dose required to cause aggressiveness in mice after ip administration. In kind it is functional.
The test system of assay [5] is Mus musculus. Briefly: Dose required to induce hyperactivity in mice (ip). In kind it is functional.
For assay [6], the system named is Mus musculus. The experiment in a line: Dose required to induce hypersensitivity in mice (ip); weak active at a dose of 12.5 mg/kg. In kind it is functional, organism-based. Set-up: dose 12.5 mg/kg.
Assay [7] concerns Mus musculus. The experiment in a line: Minimal dose required to induce in mice straub tail (ip). The assay is classed as functional.
The subject of assay [8] is Mus musculus. Briefly: Minimal dose required to cause piloerection in mice after ip administration; not active at a dose of 12.5 mg/kg. The assay is classed as functional, organism-based. Details: dose 12.5 mg/kg.
Assay [9] deals with Mus musculus. The experiment in a line: Minimal dose required to induce hyperaesthesia in mice (ip). The assay is classed as functional.
In assay [10] the test system is Mus musculus. The experiment in a line: Inhibition of reserpine (5 mg/kg i.p.) induced hypothermia in mice 4 hr after i.p. administration. In kind it is functional. As to conditions: ip.
The test system of assay [11] is Mus musculus. Briefly: Dose required to induce hyperactivity in mice (ip); weak at a dose of 150.0 mg/kg. The assay is classed as functional, organism-based. Details: dose 150 mg/kg.
Assay [12] relates to Mus musculus. The experiment in a line: Dose required to induce hypersensitivity in mice (ip). In kind it is functional.
Assay [13] relates to Mus musculus. Briefly: Minimal dose required to cause piloerection in mice after ip administration; not active at a dose of 150.0 mg/kg. In kind it is functional, organism-based. Details: dose 150 mg/kg.
Assay [14] concerns Mus musculus. The experiment in a line: Minimal dose required to induce in mice straub tail (ip); not active at a dose of 150.0 mg/kg. In kind it is functional, organism-based. Details: dose 150 mg/kg.
For assay [15], the system named is Mus musculus. The experiment in a line: Minimal dose required to induce in mice exophthalmus (ip); not active at a dose of 150.0 mg/kg. In kind it is functional, organism-based. Set-up: dose 150 mg/kg.
Assay [16] has as its system Mus musculus. The experiment in a line: Minimal dose required to induce hyperaesthesia in mice (ip); not active at a dose of 150.0 mg/kg. In kind it is functional, organism-based. Details: dose 150 mg/kg.
In assay [17] the test system is Felis catus. Briefly: Compound tested to induce facilitation of monosynaptic spikes in spinal ventral root by stimulation of the dorsal root (DR-VR) after iv administration in cats; range is 0.1-0.3. In kind it is functional.
For assay [18], the system named is Mus musculus. The experiment in a line: Minimal dose required to cause aggressiveness in mice after ip administration; not active at a dose of 150.0 mg/kg. In kind it is functional, organism-based. Details: dose 150 mg/kg.
Assay [19] deals with Mus musculus. Briefly: Minimal dose required to cause aggressiveness in mice after ip administration; not active at a dose of 12.5 mg/kg. In kind it is functional, organism-based. Set-up: dose 12.5 mg/kg.
In assay [20] the test system is Mus musculus. Briefly: Dose at which 50% convulsions occurred in mice (ip). The assay is classed as functional.
Assay [21] relates to Mus musculus. Briefly: Minimal dose required to cause piloerection in mice after ip administration. The assay is classed as functional.
Assay [22] has as its system Mus musculus. The experiment in a line: Dose required to induce hyperactivity in mice (ip); not active at a dose of 12.5 mg/kg. Details: dose 12.5 mg/kg. In kind it is functional, organism-based.

For `OC1(c2cccc(F)c2)Cc2ccccc2C2=NCCN21` (configuration not stated), the LD50 in assay [1] amounted to 21 mg/kg. The ED50 in [2] was 0.7 mg/kg; in assay [5], 12.5 mg/kg; in assay [6], “Weak”; in assay [10], 5.2 mg/kg. Moreover, the MD in assay [3], in assay [4], in [7] and in assay [9] was 9.4 mg/kg in each case. Also, the MD result in [8] is “inactive”.

`OC1(c2ccc(Cl)c(Cl)c2)Cc2ccccc2C2=NCCN21` (configuration not stated) returned an LD50 in [1] of 150 mg/kg. Further, the ED50 result in assay [11] is “Weak”; in [12] it was 150 mg/kg; in assay [2] it was 1.6 mg/kg; in assay [10] it was more than 25.6 mg/kg. In addition, the MD entry in assay [13], in [14], in assay [15], in assay [16] and in [18] was “inactive” in each case. Moreover, the Activity in assay [17] is 0.1 mg/kg.

In the case of `OC1(c2ccc3c(c2)OCO3)Cc2ccccc2C2=NCCN21` (configuration not stated), the LD50 in [1] was found to be 10.2 mg/kg. Besides, the MD entry in [19] is “inactive”. Further, the ED50 came to 12.5 mg/kg in assay [12], 0.1 mg/kg in assay [2] and 0.5 mg/kg in [10]. In addition, the MD in assay [3] turned out to be 4.7 mg/kg; in [21] it was 9.4 mg/kg; in assay [7] it was 4.7 mg/kg; in [9], 4.7 mg/kg. This compound displayed a CD50 in [20] of 18.8 mg/kg. Further, the ED50 entry in [22] is “inactive”.
